Assay results published in patent EP2550959A1 (priority 2011, dated 2013).
pIC50: −log10 of the molar value. Like-named read-outs stand apart in the source and are kept apart here.

Tests used:
[1] = target: 5-HT2A Rezeptoren von Schweineherzkranzarterien (Sus scrofa, UniProt P50129); test: Functional 5-HT2A receptor assay: 5-HT-induced contraction of pig coronary arteries; type: biochemical, Schwein
Description: (§1) Dabei bedeutet der pA2 -Wert den negativ dekadischen Logarithmus der Konzentration eines Antagonisten, die es erforderlich macht, die Agonisten-Konzentration zu verdoppeln, um den Ausgangseffekt des Agonisten ohne Antagonisten wiederherzustellen.

[2] = target: T1, 5-HT2B Rezeptoren von Schweinelungenarterien (Sus scrofa, UniProt F1SMV8); test: Functional 5-HT2B receptor assay: 5-HT-induced relaxation of PGF2α-precontracted pig pulmonary arteries; type: biochemical, Schwein; details: conditions as in Beispiel 1
T1 sequence (F1SMV8 1-481): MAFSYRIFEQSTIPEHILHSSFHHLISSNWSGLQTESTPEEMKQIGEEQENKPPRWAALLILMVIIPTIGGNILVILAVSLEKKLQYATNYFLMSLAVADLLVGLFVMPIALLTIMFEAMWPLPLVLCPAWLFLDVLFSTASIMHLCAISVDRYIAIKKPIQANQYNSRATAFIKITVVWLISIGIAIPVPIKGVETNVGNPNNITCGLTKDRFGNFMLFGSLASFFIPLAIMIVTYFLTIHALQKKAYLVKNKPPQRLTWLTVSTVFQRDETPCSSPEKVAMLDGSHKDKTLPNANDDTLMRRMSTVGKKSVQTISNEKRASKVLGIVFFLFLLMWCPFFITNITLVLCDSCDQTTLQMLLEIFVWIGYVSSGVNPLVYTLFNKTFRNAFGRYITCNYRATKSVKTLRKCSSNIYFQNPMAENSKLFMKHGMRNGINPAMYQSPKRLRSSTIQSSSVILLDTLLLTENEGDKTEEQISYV
Description: as §1
Die vaskuläre Reaktion in Präparationen der Pulmonalarterien des Schweins, die mittels PGF2α vorkontrahiert waren, wurden als Assay für die spezifische Interaktion mit 5-HT2B-Rezeptoren verwendet (siehe Fig. 1A).

[3] = system: monocrotalin-induzierten Lungenhochdruck; test: Monocrotaline-induced pulmonary hypertension in the rat; type: in vivo, Sprague-Dawley Ratten; details: days 15-28, mean ± SEM (N=6)
Description: Monocrotalin (MCT) ist ein Toxin aus Pflanzen der Spezies Crotalaria, welches nach einer einzigen Injektion in Ratten die Endothelzellen der pulmonalen Arterien schädigt mit folgender Hypertrophie der glatten Gefässmuskulatur und persistierendem schwerem pulmonalem Hochdruck. Die MCTinduzierte pulmonale Hypertension der Ratte ist ein gut etabliertes und validiertes Modell der humanen pulmonalen Hypertension und alle heute zugelassenen Therapeutika haben eine Wirkung in diesem Modell gezeigt, zumindest wenn sie vor dem toxisch bedingten Gewebeumbau angewendet wurden.
MCT (60mg/kg) wurde bei männlichen Sprague-Dawley Ratten als Einzelinjektion subkutan verabreicht und ein gleiches Volumen isotonischer Kochsalzlösung bei den Kontrolltieren injiziert. […] Dabei wurde die genannte Dosis der jeweiligen Testsubstanz morgens und abends in einem Volumen von je 2.0 ml an Gruppen von jeweils 6 Tieren gegeben, die an Tag 1 des Experiments mit MCT behandelt worden waren. Die gleiche Menge Wasser wurde den Kontrolltieren zugeführt.
Am Tag 28 des Experiments, zwei Stunden nach letztmaliger Substanzgabe, wurden die Tiere narkotisiert unter Verwendung von Pentobarbital. Eine Tracheotomie wurde durchgeführt und die Tiere unter Isofluran-Anästhesie beatmet. Der mittlere arterielle Systemdruck und der systolische Druck im rechten Herzventrikel wurden gemessen. Nach den Druckmessungen wurden die Tiere mit physiologischer Kochsalzlösung perfundiert und die rechte Lunge wurde zur Bestimmung des Kollagengehalts entfernt.
Die sc-Injektion von MCT, wie oben beschrieben, führt zu einer schweren Schädigung des pulmonalen Gefässendothels sowie überschießender Produktion von Bindegewebe und Entwicklung einer pulmonalen Hypertonie. Anhäufung von Kollagen, gemessen als Hydroxyprolin-Gehalt des Lungengewebes, und Anstieg des rechtsventrikulären systolischen Drucks reflektieren die beschriebenen strukturellen und funktionalen Veränderungen. Die möglichen therapeutischen und präventiven Effekte von Lisurid bzw. Tergurid wurden in dem vorgestellten Modell der pulmonalen Hypertension gemessen. […]

[4] = system: Menschliche glatte Muskelzellen mesenterialen Ursprungs; test: 5-HT-stimulated proliferation of human smooth muscle cells (3H-thymidine uptake); type: cell-based; details: 10 µmol/l test substance, growth stimulated with 10-8 mol/l 5-HT; Fig. 2
Description: Menschliche glatte Muskelzellen mesenterialen Ursprungs (Promo Cell) wurden entsprechend den Empfehlungen des Herstellers bis zur Bildung geschlossener Monolayers in 6 Platten mit PromoCell-Kulturmedium vermehrt und dann im gleichen Medium auf 24-Vertiefungsträgern für eine Zellzahl von 5x104 Zellen/Ansatz ausgesät. […] Zur Bestimmung des Zellwachstums wurde dann 3H-Thymidin (Amersham) zu den Zellkulturen hinzugegeben und diese für 24 Stunden inkubiert. Nach der Adhäsion der Zellen wurde das Kulturmedium durch ein Standardmedium mit 0.2% fetalem Kalbsserum zum Wachstumsstopp ersetzt und erneut 48 Stunden lang inkubiert.
Um antiproliferative Wirkungen der beschriebenen Substanzen zu testen, wurden die Zellkulturen dann zunächst mit einer Konzentration von 10 µmol/l der Prüfsubstanzen präinkubiert. […] Zur Messung des Wachstums der Zellen wurde dann 3H-Thymidin (Amersham) den Kulturen zugefügt und diese für 24 Stunden inkubiert. Danach erfolgten 2 Inkubationen in eisgekühlter Kochsalzlösung mit einem Phosphat-Puffer und danach 30 min Inkubation in eisgekühlter 10%iger Trichlor-Essigsäure bei 4°C. Die Zellen wurden dann in 0.1 molarer NaOH-Lösung inkubiert (0.5 ml/Inkubationsgefäss). Nach Neutralisierung mit Essigsäure wurde die 3H -Thymidin-Aufnahme mit Flüssig-Szintillation gemessen (als Dreifach-Bestimmung).

[5] = Antioxidative effect / uptake of oxygen radicals; type: physicochemical; details: per single molecule
Description: Die massenspektroskopisch in der Mehrheit nachweisbaren Reaktionsprodukte enthalten 2 Sauerstoffatome; es lassen sich aber auch Verbindungen mit 3, 4 und 5 Sauerstoff-Atomen nachweisen.
Ein typisches Charakteristikum von Massenspektra ist, dass Gipfel von [M+H]++18, d. h. Zusatz von Wasser, oder [M+H]++16, d.h. Zusatz eines Sauerstoffatoms, gefunden werden, wie auch Kombinationen von Wasser und Sauerstoffatomen. Wegen der niedrigen in den Entnahmeproben enthaltenen Substanzmengen und der Kurzlebigkeit der Reaktionsprodukte war deren Isolierung zur Strukturaufklärung nicht möglich. Das Lisuridmolekül weist mehrere Positionen auf, an denen Wasser und/oder ein Sauerstoffatom gebunden werden können (Fig. 4).

5-HT-induzierte Effekte = details: 2007], cited from earlier work
[6] = Stability of lisuride dissolved in water (HPLC); details: room temperature, HPLC (Fig. 3A)
[7] = target: T1, 5-HT2B Rezeptoren von Schweinelungenarterien; details: footnote d: from Glusa and Pertz, Brit. J. Pharmacol. 130, 692-698, 2000; cited from earlier work

Chain of 5-HT2A Rezeptoren von Schweineherzkranzarterien (P50129 whole entry): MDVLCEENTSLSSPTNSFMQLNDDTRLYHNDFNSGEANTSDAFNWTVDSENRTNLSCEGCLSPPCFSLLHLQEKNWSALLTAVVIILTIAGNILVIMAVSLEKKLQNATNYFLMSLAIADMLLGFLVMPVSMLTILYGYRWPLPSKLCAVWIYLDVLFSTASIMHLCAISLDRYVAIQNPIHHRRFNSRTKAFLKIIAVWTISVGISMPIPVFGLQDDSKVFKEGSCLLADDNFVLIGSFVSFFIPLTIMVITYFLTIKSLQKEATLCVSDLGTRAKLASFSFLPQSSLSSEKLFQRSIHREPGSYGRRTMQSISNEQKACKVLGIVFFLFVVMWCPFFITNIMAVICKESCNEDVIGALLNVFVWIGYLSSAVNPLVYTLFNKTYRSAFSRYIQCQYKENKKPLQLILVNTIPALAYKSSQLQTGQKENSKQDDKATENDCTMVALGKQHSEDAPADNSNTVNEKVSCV

Compound: CCNC(=O)NC1C=C2c3cccc4[nH]cc(c34)CC2N(C)C1 (stereo not drawn) [N"-Monodesethyllisurid]
- Kb [1]: 5.13 nM
- 5-HT2B pA2 [2]: 8.08 ± 0.05

Compound: CCN(CC)C(=O)N[C@H]1C[C@@H]2c3cccc4[nH]cc(c34)C[C@H]2N(C)C1 [Tergurid, trans-Dihydrolisurid]
- RVPsys ([3]; Monocrotaline (60 mg/kg s.c.) + 2.5 mg/kg bid by gavage): 39 ± 3 mmHG
- SAP ([3]; Monocrotaline + 2.5 mg/kg bid, systemic arterial pressure): 111 ± 7 mmHG
- Hydroxyproline ([3]; lung, Monocrotaline + 2.5 mg/kg bid): 2.7 ± 1.2 ug/g protein
- pIC50 [1]: 9.43
- Zellproliferation (3H -Thymidin-Aufnahme) [4]: Reduktion der Zellproliferation
- freie Sauerstoffradikale, die ein Molekül aufnehmen kann [5]: ≤ 4
- 5-HT-induzierter Gewichtsanstieg von Herz und Leber (5-HT-induzierte Effekte; rat [Hauso O et al.): verhinderte
- Verhaltensabnormalitäten und fibrotische Hautveränderungen an den Injektionsorten von 5-HT (5-HT-induzierte Effekte; rat [Hauso O et al.): unterdrückte
- pulmonale Klappeninsuffizienz (5-HT-induzierte Effekte; rat, daily 5-HT over 4 months [Hauso O et al.): nicht nachweisbar

Compound: CCN(CC)C(=O)N[C@H]1C=C2c3cccc4[nH]cc(c34)C[C@H]2N(C)C1 [Lisurid, 3-(9,10-didehydro-6-methylergoline-8alpha-yl)-1,1-diethylurea]
- Abbau von gelöstem Lisurid in Wasser [6]: schnell zu Produkten abgebaut
- freie Sauerstoffradikale, die ein Molekül aufnehmen kann [5]: ≤ 6

Compound: CCN(CC)C(=O)NC1C=C2c3cccc4[nH]cc(c34)CC2NC1 (stereo not drawn) [6-Norlisurid]
- Kb [1]: 1.45 nM
- 5-HT2B pA2 [2]: 8.39 ± 0.12

Compound: Oxtergurid
- 5-HT2A pA2 ([1]; pig coronary arteries, conditions as in Beispiel 1): 6.99 ± 0.04
- 5-HT2B pA2 [2]: 6.42 ± 0.20

Compound: CCN(CC)C(=O)NC1CC2c3cccc4[nH]cc(c34)CC2N(C)C1 (stereo not drawn) [8β-Tergurid]
- Kb [1]: 5.13 nM
- 5-HT2B pA2 [2]: 8.39 ± 0.09

Compound: CCN(CC)C(=O)NC1CNC2Cc3c[nH]c4cccc(c34)C2C1 (stereo not drawn) [6-Nortergurid]
- Kb [1]: 14.1 nM
- 5-HT2B pA2 [2]: 7.11 ± 0.08

Compound: Cc1cc(NC(=O)Nc2ccc3c(ccn3C)c2)sn1 [SB204741]
- 5-HT2B pA2 [7]: 6.59 ± 0.20^d

Compound: CCNC(=O)NC1CC2c3cccc4[nH]cc(c34)CC2N(C)C1 (stereo not drawn) [N"-Monodesethyltergurid]
- Kb [1]: 15.1 nM
- 5-HT2B pA2 [2]: 7.30 ± 0.02
